Results as given in ChEMBL document CHEMBL1121707, “Synthesis of 2'-deoxy-L-fucopyranosylcarminomycinone and -epsilon-pyrromycinone as well as 2'-deoxy-D-erythro-pentopyranosyldaunomycinone, -carminomycinone, and -epsilon-pyrromycinone” (1981).

How the values were obtained:
L1210 [1] = assay: Median survival time of treated to that of control after administration at 6.4 mg/kg intraperitoneally in BDF1 mice on day 1; format: functional, Mus musculus; details: route intraperitoneal
L1210 [2] = assay: Tested for survivors on day 5 after administration at 0.8 mg/kg intraperitoneally in mice on day 1; format: functional, Mus musculus; details: route intraperitoneal
L1210 [3] = assay: Median survival time of treated to that of control after administration at 0.4 mg/kg intraperitoneally in BDF1 mice on day 1; format: functional, Mus musculus; details: route intraperitoneal
Bacillus subtilis [4] = assay: Tested for antibacterial effect against Bacillus subtilis-8 at dose 12.5 ug/mL; format: functional
L1210 [5] = assay: Average weight change after administration at 0.8 mg/kg intraperitoneally in mice on day 1; format: functional, Mus musculus; details: route intraperitoneal
Bacillus subtilis [6] = assay: Tested for antibacterial effect against Bacillus subtilis-8 at dose 6.25 ug/mL; format: functional
L1210 [7] = assay: Average weight change after administration at 3.2 mg/kg intraperitoneally in mice on day 1; format: functional, Mus musculus; details: route intraperitoneal
L1210 [8] = assay: Tested for survivors on day 5 after administration at 1.6 mg/kg intraperitoneally in mice on day 1; format: functional, Mus musculus; details: route intraperitoneal
L1210 [9] = assay: Tested for survivors on day 5 after administration at 12.8 mg/kg intraperitoneally in mice on day 1; format: functional, Mus musculus; details: route intraperitoneal
L1210 [10] = assay: Median survival time of treated to that of control after administration at 12.8 mg/kg intraperitoneally in BDF1 mice on day 1; format: functional, Mus musculus; details: route intraperitoneal
Bacillus subtilis [11] = assay: Tested for antibacterial effect against Bacillus subtilis-8 at dose 25 ug/mL; format: functional
L1210 [12] = assay: Tested for survivors on day 5 after administration at 0.4 mg/kg intraperitoneally in mice on day 1; format: functional, Mus musculus; details: route intraperitoneal
L1210 [13] = assay: Tested for survivors on day 5 after administration at 6.4 mg/kg intraperitoneally in mice on day 1; format: functional, Mus musculus; details: route intraperitoneal
Bacillus subtilis [14] = assay: Tested for antibacterial effect against Bacillus subtilis-8 at dose 50 ug/mL; format: functional
L1210 [15] = assay: Median survival time of treated to that of control after administration at 1.6 mg/kg intraperitoneally in BDF1 mice on day 1; format: functional, Mus musculus; details: route intraperitoneal
L1210 [16] = assay: Average weight change after administration at 12.8 mg/kg intraperitoneally in mice on day 1; format: functional, Mus musculus; details: route intraperitoneal
L1210 [17] = assay: Average weight change after administration at 0.4 mg/kg intraperitoneally in mice on day 1; format: functional, Mus musculus; details: route intraperitoneal
L1210 [18] = assay: Median survival time of treated to that of control after administration at 3.2 mg/kg intraperitoneally in BDF1 mice on day 1; format: functional, Mus musculus; details: route intraperitoneal
L1210 [19] = assay: Tested for survivors on day 5 after administration at 3.2 mg/kg intraperitoneally in mice on day 1; format: functional, Mus musculus; details: route intraperitoneal
L1210 [20] = assay: Average weight change after administration at 1.6 mg/kg intraperitoneally in mice on day 1; format: functional, Mus musculus; details: route intraperitoneal
L1210 [21] = assay: Median survival time of treated to that of control after administration at 0.8 mg/kg intraperitoneally in BDF1 mice on day 1; format: functional, Mus musculus; details: route intraperitoneal
P388 [22] = assay: Average weight change after administration on every 4th day at 50 mg/kg intraperitoneally in mice; format: functional, Mus musculus; details: route intraperitoneal
P388 [23] = assay: Average weight change after administration on every 4th day at 12.5 mg/kg intraperitoneally in mice; format: functional, Mus musculus; details: route intraperitoneal
L1210 [24] = assay: Average weight change after administration at 3.2 mg/kg intraperitoneally in mice on day 1 in experiment 1; format: functional, Mus musculus; details: route intraperitoneal
P388 [25] = assay: Average weight change after administration on every 4th day at 6.25 mg/kg intraperitoneally in mice; format: functional, Mus musculus; details: route intraperitoneal
P388 [26] = assay: Tested for survivors on day 5 after administration on every 4th day at 25 mg/kg intraperitoneally in mice; format: functional, Mus musculus; details: route intraperitoneal
P388 [27] = assay: Tested for survivors on day 5 after administration at 12.5 mg/kg intraperitoneally in mice on day 1 in experiment 2; format: functional, Mus musculus; details: route intraperitoneal
P388 [28] = assay: Tested for survivors on day 5 after administration on every 4th day at 50 mg/kg intraperitoneally in mice; format: functional, Mus musculus; details: route intraperitoneal
P388 [29] = assay: Median survival time of treated to that of control after administration on every 4th day at 50 mg/kg intraperitoneally in BDF1 mice; format: functional, Mus musculus; details: route intraperitoneal
P388 [30] = assay: Median survival time of treated to that of control after administration on every 4th day at 6.25 mg/kg intraperitoneally in BDF1 mice; format: functional, Mus musculus; details: route intraperitoneal
L1210 [31] = assay: Median survival time of treated to that of control after administration at 0.8 mg/kg intraperitoneally in BDF1 mice on day 1 in experiment 1; format: functional, Mus musculus; details: route intraperitoneal
L1210 [32] = assay: Tested for survivors on day 5 after administration at 6.4 mg/kg intraperitoneally in mice on day 1 in experiment 1; format: functional, Mus musculus; details: route intraperitoneal
L1210 [33] = assay: Average weight change after administration at 1.6 mg/kg intraperitoneally in mice on day 1 in experiment 1; format: functional, Mus musculus; details: route intraperitoneal
L1210 [34] = assay: Median survival time of treated to that of control after administration at 6.4 mg/kg intraperitoneally in BDF1 mice on day 1 in experiment 1; format: functional, Mus musculus; details: route intraperitoneal
L1210 [35] = assay: Average weight change after administration at 0.4 mg/kg intraperitoneally in mice on day 1 in experiment 1; format: functional, Mus musculus; details: route intraperitoneal
P388 [36] = assay: Average weight change after administration on every 4th day at 25 mg/kg intraperitoneally in mice; format: functional, Mus musculus; details: route intraperitoneal
L1210 [37] = assay: Tested for survivors on day 5 after administration at 3.2 mg/kg intraperitoneally in mice on day 1 in experiment 1; format: functional, Mus musculus; details: route intraperitoneal
P388 [38] = assay: Average weight change after administration at 3.13 mg/kg intraperitoneally in mice; format: functional, Mus musculus; details: route intraperitoneal
L1210 [39] = assay: Median survival time of treated to that of control after administration at 1.6 mg/kg intraperitoneally in BDF1 mice on day 1 in experiment 1; format: functional, Mus musculus; details: route intraperitoneal
L1210 [40] = assay: Average weight change after administration at 12.8 mg/kg intraperitoneally in mice on day 1 in experiment 1; format: functional, Mus musculus; details: route intraperitoneal
P388 [41] = assay: Tested for survivors on day 5 after administration on every 4th day at 3.13 mg/kg intraperitoneally in mice; format: functional, Mus musculus; details: route intraperitoneal
P388 [42] = assay: Tested for survivors on day 5 after administration on every 4th day at 6.25 mg/kg intraperitoneally in mice; format: functional, Mus musculus; details: route intraperitoneal
L1210 [43] = assay: Median survival time of treated to that of control after administration at 3.2 mg/kg intraperitoneally in BDF1 mice on day 1 in experiment 1; format: functional, Mus musculus; details: route intraperitoneal
L1210 [44] = assay: Tested for survivors on day 5 after administration at 0.8 mg/kg intraperitoneally in mice on day 1 in experiment 1; format: functional, Mus musculus; details: route intraperitoneal
L1210 [45] = assay: Median survival time of treated to that of control after administration at 12.8 mg/kg intraperitoneally in BDF1 mice on day 1 in experiment 1; format: functional, Mus musculus; details: route intraperitoneal
P388 [46] = assay: Median survival time of treated to that of control after administration at 3.13 mg/kg intraperitoneally in BDF1 mice; format: functional, Mus musculus; details: route intraperitoneal
L1210 [47] = assay: Tested for survivors on day 5 after administration at 12.8 mg/kg intraperitoneally in mice on day 1 in experiment 1; format: functional, Mus musculus; details: route intraperitoneal
L1210 [48] = assay: Tested for survivors on day 5 after administration at 0.4 mg/kg intraperitoneally in mice on day 1 in experiment 1; format: functional, Mus musculus; details: route intraperitoneal
L1210 [49] = assay: Average weight change after administration at 0.8 mg/kg intraperitoneally in mice on day 1 in experiment 1; format: functional, Mus musculus; details: route intraperitoneal
L1210 [50] = assay: Tested for survivors on day 5 after administration at 1.6 mg/kg intraperitoneally in mice on day 1 in experiment 1; format: functional, Mus musculus; details: route intraperitoneal
L1210 [51] = assay: Average weight change after administration at 6.4 mg/kg intraperitoneally in mice on day 1 in experiment 1; format: functional, Mus musculus; details: route intraperitoneal
P388 [52] = assay: Median survival time of treated to that of control after administration on every 4th day at 25 mg/kg intraperitoneally in BDF1 mice; format: functional, Mus musculus; details: route intraperitoneal
P388 [53] = assay: Median survival time of treated to that of control after administration on every 4th day at 12.5 mg/kg intraperitoneally in BDF1 mice; format: functional, Mus musculus; details: route intraperitoneal
L1210 [54] = assay: Median survival time of treated to that of control after administration at 0.4 mg/kg intraperitoneally in BDF1 mice on day 1 in experiment 1; format: functional, Mus musculus; details: route intraperitoneal

SMILES: C/C(=N\NC(=O)c1ccccc1)[C@]1(O)Cc2c(O)c3c(c(O)c2[C@@H](O[C@H]2C[C@H](O)[C@H](O)[C@H](C)O2)C1)C(=O)c1c(O)cccc1C3=O
- T/C (L1210 [1]): 107%
- Survivors (L1210 [2]): 6
- T/C (L1210 [3]): 100%
- Inhibition zone (Bacillus subtilis [4]): 12.8 mm
- Average weight change (L1210 [5]): 1.5
- Inhibition zone (Bacillus subtilis [6]): 10.3 mm
- Average weight change (L1210 [7]): 1.9
- Survivors (L1210 [8]): 6
- Survivors (L1210 [9]): 6
- T/C (L1210 [10]): 114%
- Inhibition zone (Bacillus subtilis [11]): 13.8 mm
- Survivors (L1210 [12]): 6
- Survivors (L1210 [13]): 6
- Inhibition zone (Bacillus subtilis [14]): 15 mm
- T/C (L1210 [15]): 100%
- Average weight change (L1210 [16]): -0.3
- Average weight change (L1210 [17]): 2.3
- T/C (L1210 [18]): 93%
- Survivors (L1210 [19]): 6
- Average weight change (L1210 [20]): 2
- T/C (L1210 [21]): 93%

SMILES: COc1cccc2c1C(=O)c1c(O)c3c(c(O)c1C2=O)C[C@@](O)(C(C)=O)C[C@@H]3O[C@H]1C[C@H](O)[C@H](O)CO1
- Average weight change (P388 [22]): 0.2
- Average weight change (P388 [23]): -1.3
- Average weight change (L1210 [24]): 0.2
- Average weight change (P388 [25]): -1.2
- Survivors (P388 [26]): 6
- Survivors (P388 [27]): 6
- Inhibition zone (Bacillus subtilis [4]): 12.5 mm
- Survivors (P388 [28]): 6
- T/C (P388 [29]): 110%
- T/C (P388 [30]): 100%
- T/C (L1210 [31]): 100%
- Survivors (L1210 [32]): 6
- Inhibition zone (Bacillus subtilis [6]): 10 mm
- Average weight change (L1210 [33]): 2.6
- T/C (L1210 [34]): 93%
- Average weight change (L1210 [35]): 1.5
- Average weight change (P388 [36]): -0.5
- Inhibition zone (Bacillus subtilis [11]): 15.8 mm
- Survivors (L1210 [37]): 6
- Average weight change (P388 [38]): -2
- T/C (L1210 [39]): 86%
- Average weight change (L1210 [40]): 2.3
- Inhibition zone (Bacillus subtilis [14]): 18.8 mm
- Survivors (P388 [41]): 6
- Survivors (P388 [42]): 6
- T/C (L1210 [43]): 100%
- Survivors (L1210 [44]): 6
- T/C (L1210 [45]): 107%
- T/C (P388 [46]): 100%
- Survivors (L1210 [47]): 6
- Survivors (L1210 [48]): 6
- Average weight change (L1210 [49]): 1.8
- Survivors (L1210 [50]): 6
- Average weight change (L1210 [51]): 2.4
- T/C (P388 [52]): 110%
- T/C (P388 [53]): 112%
- T/C (L1210 [54]): 100%
